Measurements: patent publication US7053234B2 (Amgen Inc., priority 2000, dated 2006)
Values after ≈ are worked out from the molar mass of the structure shown.

Experiments:
[1] = molecular target: T1, Sigma^70 saturated E. coli RNA Polymerase (Escherichia coli, UniProt P0A8T7+P0A8V2); assay: RNA polymerase inhibition assay (E. coli enzyme); assay type: biochemical; details: Table 1; enzyme not named, method uses E. coli RNA polymerase; read-out: IC50
T1 construct: purchased Epicenter
Description: The compounds of the present invention can be evaluated for antibacterial activity in a variety of assay formats known to those of skill in art. The specific assays used to select the most appropriate compound for use will typically depend on the targeted bacteria or infection. One common assay involves evaluation of the compounds as RNA polymerase inhibitors. In this assay, buffer (250 mM KCl, 5% Glycerol, 10 mM MgCl2, 0.1 mg/ml BSA) is combined with 6 mM B-M.E., PT5 DNA template, and 1.3 ug/rxn Sigma^70 saturated E. coli RNA Polymerase (Epicenter). The compound is then added in a manner not to exceed 5% DMSO. Nucleotide triphosphates are then added at the following concentration: 250 uM ATP, […] and UTP with 100 uM cold CTP and 50 uM alpha ^32P CTP. The mixture is incubated for 10 min at about 37° C. A [2×] loading buffer is added and the mixture is then run on a 6% urea denaturing PAGE until bromophenol blue reaches the edge of plate. The gel is soaked (about 20 minutes in 10% MeOH and 10% acetic acid, to remove urea), then dried (about 55 minutes at about 85° C. (BioRad Gel Drier)) and exposed to a Phospho Imaging Plate for 1 hour. The plate is then read on a Fujix Bas1000 Imaging System and quantified using MacBas v2.0 software. An IC50 (in uM) can be calculated as the concentration of a drug which reduces the enzyme activity to 50% of the control.

B. su = assay: MIC determination, B. su; assay type: cell-based; details: Table 1, 16 hours at 37° C. in LB medium, read-out: B. su (bacterial MIC)
Description: (§1) For MIC determinations for selected bacteria, log phase growing bacteria are re-suspended at 1×10^5 bacteria per mL in LB medium. The compound is added and two-fold dilutions are made. The final volume in the 96-well plate is about 100 uL. The plate is incubated at 37° C. in the dark with shaking. After 16 hours of incubation, growth is monitored by reading A600 or by visual inspection. MIC is defined as the minimum concentration of drug resulting in inhibition of visible growth of bacterial under the conditions described (above) in National Committee for Clinical Laboratory Standards 1993. Methods for dilution antimicrobial susceptibility tests for bacteria that grow aerobically. Approved standard M7-A3; National Committee for Clinical Laboratory Standards: Villanova, Pa.

S. aureus = assay: MIC determination, S. aureus; assay type: cell-based; details: Staphylococcus aureus; Table 1; MIC, 16 hours at 37° C. in LB medium; read-out: S. au (bacterial MIC)
Description: The compound is added and two-fold dilutions are made. The final volume in the 96-well plate is about 100 uL. The plate is incubated at 37° C. in the dark with shaking. After 16 hours of incubation, growth is monitored by reading A600 or by visual inspection. […] Methods for dilution antimicrobial susceptibility tests for bacteria that grow aerobically. Approved standard M7-A3; National Committee for Clinical Laboratory Standards: Villanova, Pa.

E. coli (tolC) = assay: MIC determination, E. coli (tolC); assay type: cell-based; details: Escherichia coli, 16 h, read-out: E. c(tolC) (bacterial MIC)
Description: as §1

T1 sequence (P0A8V2 whole entry): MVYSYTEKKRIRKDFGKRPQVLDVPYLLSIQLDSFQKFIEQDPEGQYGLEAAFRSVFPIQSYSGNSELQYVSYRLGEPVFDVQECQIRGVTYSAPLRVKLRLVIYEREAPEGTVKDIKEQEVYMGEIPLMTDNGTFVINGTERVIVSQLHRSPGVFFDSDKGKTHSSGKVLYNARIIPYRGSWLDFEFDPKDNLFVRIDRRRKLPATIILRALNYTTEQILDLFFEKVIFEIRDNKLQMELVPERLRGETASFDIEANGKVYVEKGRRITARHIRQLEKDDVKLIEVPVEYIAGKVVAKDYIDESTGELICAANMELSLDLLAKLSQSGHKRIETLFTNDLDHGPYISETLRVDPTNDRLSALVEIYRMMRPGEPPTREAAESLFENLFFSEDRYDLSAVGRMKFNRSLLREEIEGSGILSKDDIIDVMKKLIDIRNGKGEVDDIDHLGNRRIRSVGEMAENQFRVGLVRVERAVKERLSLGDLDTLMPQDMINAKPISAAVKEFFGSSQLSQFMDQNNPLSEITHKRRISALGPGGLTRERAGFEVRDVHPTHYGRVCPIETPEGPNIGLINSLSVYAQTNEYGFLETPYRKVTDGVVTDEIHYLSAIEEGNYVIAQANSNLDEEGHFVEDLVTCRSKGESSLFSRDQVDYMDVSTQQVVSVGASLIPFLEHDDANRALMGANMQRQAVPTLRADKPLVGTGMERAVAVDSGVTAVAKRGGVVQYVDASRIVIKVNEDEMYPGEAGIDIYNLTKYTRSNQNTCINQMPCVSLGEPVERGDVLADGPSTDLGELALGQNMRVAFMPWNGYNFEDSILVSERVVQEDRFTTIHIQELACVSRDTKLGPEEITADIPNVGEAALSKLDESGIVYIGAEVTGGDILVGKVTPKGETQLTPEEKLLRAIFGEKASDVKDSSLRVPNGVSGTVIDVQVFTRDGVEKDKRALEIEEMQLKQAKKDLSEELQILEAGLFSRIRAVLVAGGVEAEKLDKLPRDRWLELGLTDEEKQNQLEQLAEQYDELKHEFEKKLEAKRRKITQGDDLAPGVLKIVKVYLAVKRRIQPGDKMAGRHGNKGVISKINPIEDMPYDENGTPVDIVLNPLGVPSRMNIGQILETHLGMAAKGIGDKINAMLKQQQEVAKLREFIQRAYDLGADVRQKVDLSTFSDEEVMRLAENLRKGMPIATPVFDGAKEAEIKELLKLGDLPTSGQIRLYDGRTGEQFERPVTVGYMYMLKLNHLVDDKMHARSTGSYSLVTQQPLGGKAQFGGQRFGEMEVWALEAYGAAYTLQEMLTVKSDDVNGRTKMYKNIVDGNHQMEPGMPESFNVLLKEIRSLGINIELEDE
T1 sequence (P0A8T7 whole entry): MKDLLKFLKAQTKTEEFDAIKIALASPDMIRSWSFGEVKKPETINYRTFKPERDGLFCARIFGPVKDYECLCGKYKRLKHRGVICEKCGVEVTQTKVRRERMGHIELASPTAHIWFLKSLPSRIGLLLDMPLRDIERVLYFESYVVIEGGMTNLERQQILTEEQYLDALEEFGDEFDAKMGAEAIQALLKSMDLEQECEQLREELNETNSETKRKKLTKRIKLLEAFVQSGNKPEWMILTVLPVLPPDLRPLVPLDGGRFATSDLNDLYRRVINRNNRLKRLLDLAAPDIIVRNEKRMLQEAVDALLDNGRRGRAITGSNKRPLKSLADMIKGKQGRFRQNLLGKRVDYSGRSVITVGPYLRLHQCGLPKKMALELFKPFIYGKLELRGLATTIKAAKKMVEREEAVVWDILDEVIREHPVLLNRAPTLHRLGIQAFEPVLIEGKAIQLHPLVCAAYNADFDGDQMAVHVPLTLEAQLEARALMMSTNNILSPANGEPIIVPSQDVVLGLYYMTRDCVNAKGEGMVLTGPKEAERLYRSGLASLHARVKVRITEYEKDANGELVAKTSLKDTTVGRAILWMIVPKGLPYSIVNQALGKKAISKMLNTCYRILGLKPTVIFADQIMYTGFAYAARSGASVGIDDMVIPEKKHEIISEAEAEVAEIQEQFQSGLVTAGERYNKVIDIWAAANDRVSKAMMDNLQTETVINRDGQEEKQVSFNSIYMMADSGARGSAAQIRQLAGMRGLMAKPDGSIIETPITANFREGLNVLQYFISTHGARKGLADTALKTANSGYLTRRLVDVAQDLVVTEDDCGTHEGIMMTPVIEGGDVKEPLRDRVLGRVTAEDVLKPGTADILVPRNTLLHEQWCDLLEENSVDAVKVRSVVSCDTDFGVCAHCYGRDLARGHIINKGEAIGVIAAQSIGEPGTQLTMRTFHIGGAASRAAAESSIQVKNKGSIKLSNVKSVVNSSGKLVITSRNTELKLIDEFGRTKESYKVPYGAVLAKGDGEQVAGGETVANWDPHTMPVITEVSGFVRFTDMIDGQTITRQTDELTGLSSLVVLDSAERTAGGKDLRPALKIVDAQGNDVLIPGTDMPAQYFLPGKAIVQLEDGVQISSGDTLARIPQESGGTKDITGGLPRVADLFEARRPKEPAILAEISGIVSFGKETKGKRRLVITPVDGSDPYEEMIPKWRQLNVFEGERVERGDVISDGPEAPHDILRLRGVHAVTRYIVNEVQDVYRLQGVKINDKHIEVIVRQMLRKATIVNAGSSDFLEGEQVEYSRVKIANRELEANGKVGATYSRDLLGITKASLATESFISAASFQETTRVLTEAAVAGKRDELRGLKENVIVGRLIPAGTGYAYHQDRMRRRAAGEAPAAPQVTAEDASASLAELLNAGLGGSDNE
T1 sequence (P0A7Z4 whole entry partner): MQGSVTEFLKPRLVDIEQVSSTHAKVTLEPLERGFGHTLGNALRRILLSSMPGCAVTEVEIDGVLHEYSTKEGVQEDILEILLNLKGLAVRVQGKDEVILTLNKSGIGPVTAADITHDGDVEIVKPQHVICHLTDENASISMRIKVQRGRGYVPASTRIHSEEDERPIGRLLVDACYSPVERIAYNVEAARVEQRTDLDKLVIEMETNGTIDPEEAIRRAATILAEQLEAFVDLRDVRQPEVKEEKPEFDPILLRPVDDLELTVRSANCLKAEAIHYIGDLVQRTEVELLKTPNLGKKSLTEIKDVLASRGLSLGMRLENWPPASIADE
T1 sequence (P0A800 whole entry partner): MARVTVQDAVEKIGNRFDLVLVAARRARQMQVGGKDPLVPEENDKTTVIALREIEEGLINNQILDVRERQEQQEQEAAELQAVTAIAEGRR
T1 sequence (P00579 whole entry partner): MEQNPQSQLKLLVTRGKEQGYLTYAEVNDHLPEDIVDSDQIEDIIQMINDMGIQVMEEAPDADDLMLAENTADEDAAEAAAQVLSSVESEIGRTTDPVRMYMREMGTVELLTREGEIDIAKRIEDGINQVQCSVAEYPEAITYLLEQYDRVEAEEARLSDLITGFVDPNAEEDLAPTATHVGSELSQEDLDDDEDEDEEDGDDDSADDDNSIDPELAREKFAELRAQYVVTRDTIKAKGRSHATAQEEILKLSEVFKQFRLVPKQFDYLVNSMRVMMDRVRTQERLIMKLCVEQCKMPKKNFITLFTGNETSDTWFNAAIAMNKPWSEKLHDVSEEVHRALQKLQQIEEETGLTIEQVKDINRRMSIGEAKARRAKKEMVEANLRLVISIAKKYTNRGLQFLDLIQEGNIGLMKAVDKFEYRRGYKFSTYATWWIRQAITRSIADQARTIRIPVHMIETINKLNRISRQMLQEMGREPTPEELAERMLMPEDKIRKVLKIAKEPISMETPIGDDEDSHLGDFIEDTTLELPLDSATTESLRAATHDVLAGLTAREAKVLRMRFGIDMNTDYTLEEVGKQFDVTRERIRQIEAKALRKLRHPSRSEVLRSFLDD

ON=C(Nc1cccc(Br)c1)c1cccc(C(F)(F)F)c1 [R′=3-CF3, R″=H, R′″=3-Br]
IC50 [1]: 10 to 50 µM
MIC (B. su): < 40 µM
MIC (S. aureus): 40 to 125 µM (≈ 14.4 to 44.9 µg/mL)
MIC (E. coli (tolC)): < 40 µM

N#Cc1cccc(NC(=NO)c2cccc(C(F)(F)F)c2)c1 [R′=3-CF3, R″=H, R′″=3-CN]
IC50 [1]: > 50 µM
MIC (B. su): > 125 µM
MIC (S. aureus): > 125 µM
MIC (E. coli (tolC)): 40 to 125 µM (≈ 12.2 to 38.2 µg/mL)

ON=C(Nc1cccc(F)c1)c1cccc(C(F)(F)F)c1 [R′=3-CF3, R″=H, R′″=3-F]
IC50 [1]: 10 to 50 µM
MIC (B. su): 40 to 125 µM (≈ 11.9 to 37.3 µg/mL)
MIC (S. aureus): 40 to 125 µM (≈ 11.9 to 37.3 µg/mL)
MIC (E. coli (tolC)): < 40 µM

ON=C(Nc1cccc(Oc2ccccc2)c1)c1cccc(C(F)(F)F)c1 [R′=3-CF3, R″=H, R′″=3-OPh]
IC50 [1]: > 50 µM
MIC (B. su): < 40 µM
MIC (S. aureus): < 40 µM
MIC (E. coli (tolC)): < 40 µM

ON=C(Nc1cccc(F)c1)c1ccc(Cl)c(Cl)c1 [R′=3-Cl, R″=4-Cl, R′″=3-F]
IC50 [1]: 10 to 50 µM
MIC (B. su): 40 to 125 µM (≈ 12 to 37.4 µg/mL)
MIC (S. aureus): 40 to 125 µM (≈ 12 to 37.4 µg/mL)
MIC (E. coli (tolC)): < 40 µM

ON=C(Nc1cccc(Cl)c1)c1cccc(OC(F)(F)F)c1 [R′=3-OCF3, R″=H, R′″=3-Cl]
IC50 [1]: 10 to 50 µM
MIC (B. su): < 40 µM
MIC (S. aureus): 40 to 125 µM (≈ 13.2 to 41.3 µg/mL)
MIC (E. coli (tolC)): < 40 µM

ON=C(Nc1cccc(Cl)c1)c1ccc(Cl)cc1 [R′=4-Cl, R″=H, R′″=3-Cl]
IC50 [1]: > 50 µM
MIC (B. su): 40 to 125 µM (≈ 11.2 to 35.1 µg/mL)
MIC (S. aureus): 40 to 125 µM (≈ 11.2 to 35.1 µg/mL)
MIC (E. coli (tolC)): < 40 µM
